Where two headings read alike, the source gives them in different places.
What was measured:
[1] = tested on: A549; test: cells; type: cell-based; details: for GI50: read-out: GI50
In short: (§1)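 Absorbance at 490 nm of sulphorhodamine B bound by TCA-fixed cells gives the growth readout after 48 h continuous exposure to test samples (10 to 10^−8 μg/ml). Cells were seeded at 5×10^3 per well in RPMI 1640/10% FBS and allowed 18 h to attach first.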

[2] = tested on: DU145; test: cells; type: cell-based; details: for CC50: read-out: LC50
In short: as §1

[3] = tested on: HT29; test: cells; type: cell-based
In short: as §1

[4] = tested on: IGROV-ET; test: cells; type: cell-based; details: IGROV-ET; for CC50: read-out: LC50
In short: as §1

[5] = tested on: IGROV; test: cells; type: cell-based
In short: as §1

[6] = tested on: K562; test: cells; type: cell-based; details: for CC50: read-out: LC50
In short: as §1

[7] = tested on: LNCAP; test: cells; type: cell-based
In short: as §1

[8] = tested on: LOVO-DOX; test: cells; type: cell-based; details: for GI50 / TGI: LOVO-DOX
In short: as §1

[9] = tested on: LOVO; test: cells; type: cell-based; details: for CC50: read-out: LC50
In short: as §1

[10] = tested on: MEL-28; test: cells; type: cell-based; details: for CC50: read-out: LC50
In short: as §1

[11] = tested on: PANC-1; test: cells; type: cell-based; details: for CC50: read-out: LC50
In short: as §1

[12] = tested on: SK-BR3; test: cells; type: cell-based; details: for CC50: read-out: LC50
In short: as §1

[13] = tested on: H-MEC-1; test: Inhibition of cells growth by colorimetric assay (SRB), H-MEC-1; type: cell-based; details: for CC50: Homo sapiens
In short: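 Seeding density 5×10^3 cells/well; attachment 18 h in drug-free medium; exposure 48 h, 10 to 10^−8 μg/ml. Fixation cold TCA 60 min at 4° C, SRB 10 min, absorbance 490 nm.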

[14] = tested on: SK-OV3; test: Inhibition of cells growth by colorimetric assay (SRB), SK-OV3; type: cell-based
In short: as §1

[15] = tested on: AML-12, normal mouse liver cells; details: 24 h
Procedure: (§2) In order to assess the cytotoxicity of the drugs to normal cells, we used 96 well plates plated at a density of 5000 cells per well (except for the FDC-P1 which were plated at 12,000 cells per well) with normal cell lines (ATCC, Table 1) maintained as per the directions of the ATCC: AML-12, normal mouse liver cells; NRK-52E, normal rat kidney cells; L8, normal rat skeletal muscle cells; FDC-P1, normal mouse myelogeous stem cells; and H9c2 (2-1), normal rat cardiac muscle cells. The cells in each plate were permitted to settle overnight before adding the test drug.
(§3) To each well (100 μl medium) 10 μl of drug in media was added at varying concentrations (1×10-10-0.01 mg/ml final concentration) and further incubated overnight at 37° C. with 5% CO2. After 24 h the following assays were performed. All experiments were repeated at least 3 times and were assayed in duplicate.
(§4) MTS assay (CellTiter 96 aqueous) was performed according to the manufacturer's (Promega) directions (for all cell types). Cell viability (mitochondrial activity) is determined via enzymatic conversion of the formazan substrate.

[16] = tested on: NRK-52E, normal rat kidney cells; details: 24 h
[17] = tested on: L8, normal rat skeletal muscle cells; details: 24 h
[18] = tested on: FDC-P1, normal mouse myelogeous stem cells; details: 24 h
[19] = tested on: H9c2 (2-1), normal rat cardiac muscle cells; details: 24 h
Procedure: as §2, §3, §4

[20] = s9, 60 min, 1 μM
[21] = biological target: CYP3A4 (Homo sapiens, UniProt P08684); details: 30 min, 10 µM
Procedure: For CYP3A4 inhibition assay, the compound were tested at 10 μM in duplicate with a 0.25% final concentration of both methanol and acetonitrile in presence of the fluorescent substrate BFC (50 μM). The conversion of the BFC (7-benzyloxy-4-trifluoromethylcoumarin) in HFC (7-hydroxy-4-trifluoromethylcoumarin) was determined spectro-fluormetry after incubation with the enzyme during 30 min at 37° C.
(§5) For both assays, the fluorescent intensity measured at t=0 is subtracted from that measured after the appropriate incubation time. The ratio of signal-to-noise is calculated by comparing the fluorescence in incubations containing the test compound to the control samples containing the same solvent vehicle. The percent of control activity is calculated and reported as percent inhibition.

[22] = tested on: (HEPG2); details: human, 24 h, 30 μM
Procedure: The toxic potential of compounds was investigated in vitro using primary human hepatocytes (HEPG2). The compounds were tested at 30 μM in duplicate with a final DMSO concentration of 1%. After incubation during 24 h at 37° C. the cell viability was determined by the conversion of oxided alarmarBlue (resazurin) to reduced alarmarBlue (resorufin). Chlorpromazine was used as reference compound. Results are expressed as a percent of inhibition of control values.

[23] = physchem; details: pH 7.4, log D n-Octanol-Dulbecco's PBS pH 7.4
Procedure: The measurement of partition coefficient was evaluated based on a miniaturized shake-flask procedure. Buffer (Dulbecco's PBS, pH 7.40) was used as the aqueous phase. The tested compound was dissolved in DMSO, at the concentration of 100 μM. The final DMSO concentration (1%.) during the octanol-buffer partitioning are very low to avoid bias on the partitioning. The amount of compound in the buffer phase was determined by HPLC with photodiode array detection after an equilibration phase of 60 min. The amount of compound in the octanol phase is calculated by subtraction of the amount of compound in buffer from the total amount of compound, which is determined from a calibration sample.
Log D is calculated as the Log10 of the amount of compound in the octanol phase divided by the amount of compound in the buffer phase. The effective range of the log D microassay is approximately −0.5 to +4.5.

[24] = biological target: CYP2D6 (Homo sapiens, UniProt P10635); test: in vitro; details: CYP2D6 (% inhibition)
Procedure: For CYP2D6 inhibition assay, the compound are tested at 10 μM in duplicate with a 0.25% final concentration of both methanol and acetonitrile in presence of the fluorescent substrate AMMC (3-[2-N,N-diethyl-N-methylammonium)ethyl]-7-methoxy-4-methylcoumarin) at the concentration of 1.5 μM). The conversion of the AMMC in AHMC (3-[2-N,N-diethyl-N-methylammonium)ethyl]-7-hydroxy-4-methylcoumarin) is determined spectrofluorimetry after incubation with the enzyme during 450 min at 37° C.
as §5

[25] = tested on: P388 lymphoma; details: mice, U.S. Pat. No. 5,149,804; cited from earlier work
[26] = tested on: B16 melanoma; details: mice, U.S. Pat. No. 5,149,804; cited from earlier work
[27] = tested on: Lewis lung carcinoma; details: mice, U.S. Pat. No. 5,149,804; cited from earlier work
[28] = Homo sapiens, DU-145, 48 h, DU145, 48 hours exposure, SRB
[29] = Homo sapiens, 48 h, 48 hours exposure, SRB
[30] = Homo sapiens, LNCaP, 48 h, 48 hours exposure, SRB
[31] = Homo sapiens, PANC-1, 48 h, PANC-1, 48 hours exposure, SRB
[32] = H-MEC-1, 48 hours exposure, SRB

CYP3A4, sequence (P08684 whole entry): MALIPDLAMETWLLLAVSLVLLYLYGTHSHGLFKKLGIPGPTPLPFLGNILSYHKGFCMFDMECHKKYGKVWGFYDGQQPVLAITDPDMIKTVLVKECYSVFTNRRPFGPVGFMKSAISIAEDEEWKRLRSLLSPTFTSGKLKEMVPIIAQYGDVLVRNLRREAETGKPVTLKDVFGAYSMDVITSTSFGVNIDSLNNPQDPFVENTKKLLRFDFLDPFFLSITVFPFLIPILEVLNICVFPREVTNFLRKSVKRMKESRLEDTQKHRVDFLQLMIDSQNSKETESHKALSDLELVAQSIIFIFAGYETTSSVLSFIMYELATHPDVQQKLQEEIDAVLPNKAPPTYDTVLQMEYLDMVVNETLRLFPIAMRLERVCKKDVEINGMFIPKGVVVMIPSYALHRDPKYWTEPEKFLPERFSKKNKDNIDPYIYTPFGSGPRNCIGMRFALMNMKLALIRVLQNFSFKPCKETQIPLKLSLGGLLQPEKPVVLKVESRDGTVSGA
CYP2D6, sequence (P10635 whole entry): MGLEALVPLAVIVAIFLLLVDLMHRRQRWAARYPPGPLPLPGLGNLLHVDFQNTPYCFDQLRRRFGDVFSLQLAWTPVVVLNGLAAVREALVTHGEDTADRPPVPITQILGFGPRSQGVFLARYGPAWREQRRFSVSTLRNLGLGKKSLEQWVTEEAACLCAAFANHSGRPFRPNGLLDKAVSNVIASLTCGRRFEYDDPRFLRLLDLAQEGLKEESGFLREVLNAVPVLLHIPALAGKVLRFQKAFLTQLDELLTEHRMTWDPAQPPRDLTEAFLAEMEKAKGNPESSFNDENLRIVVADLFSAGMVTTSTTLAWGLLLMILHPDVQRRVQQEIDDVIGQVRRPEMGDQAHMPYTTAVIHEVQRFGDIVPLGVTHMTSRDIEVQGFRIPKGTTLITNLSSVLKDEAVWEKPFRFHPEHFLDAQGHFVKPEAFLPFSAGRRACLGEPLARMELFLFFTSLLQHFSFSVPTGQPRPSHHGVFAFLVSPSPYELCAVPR

Molecule `COc1c(C)cc2c(c1O)[C@@H]1C3[C@@H]4SC[C@]5(NC(C)Cc6c5[nH]c5ccc(F)cc65)C(=O)COC[C@@H](c5c6c(c(C)c(OC(C)=O)c54)OCO6)N3[C@@H](O)[C@H](C2)N1C` (some centres unmarked) [Compound 41] has a GI50 ([1]; Homo sapiens, A549, 48 h, A549, 48 hours exposure, SRB) of 19.8 nM, an IC (TGI) ([1]; Homo sapiens, A549, 48 h, A549, 48 hours exposure, SRB, read-out: TGI) of 46.8 nM and a CC50 ([1]; Homo sapiens, A549, 48 h, read-out: LC50, A549, 48 hours exposure, SRB) of 110 nM. It also gave a GI50 [2, 28] of 3.49 nM, an IC (TGI) [2, 28] of 8.37 nM and a CC50 ([2]; DU145, 48 hours exposure, SRB) of 9900 nM. It also gave a GI50 ([3]; HT29, 48 hours exposure, SRB) of 5.66 nM, a TGI ([3]; HT29, 48 hours exposure, SRB) of 6.07E−08 Molar and a CC50 ([3]; Homo sapiens, HT-29, 48 h, read-out: LC50, HT29, 48 hours exposure, SRB) of 12700 nM. It also gave a GI50 ([4]; 48 hours exposure, SRB) of 3.14 nM, a TGI ([4]; 48 hours exposure, SRB) of 2.00E−08 Molar and a CC50 ([4]; 48 hours exposure, SRB) of 3860 nM. The GI50 [5, 29] was 1.94 nM, the IC (TGI) [5, 29] was 4.14 nM and the CC50 ([5]; Homo sapiens, 48 h, read-out: LC50, IGROV, 48 hours exposure, SRB) was 8.86 nM. For the same molecule, the GI50 ([6]; K562, 48 hours exposure, SRB) was 0.11 nM, the TGI ([6]; K562, 48 hours exposure, SRB) was 2.19E−09 Molar and the CC50 ([6]; K562, 48 hours exposure, SRB) was 5.57 nM. For the same molecule, the GI50 [7, 30] was 2.62 nM, the IC (TGI) [7, 30] was 5.17 nM and the CC50 ([7]; Homo sapiens, LNCaP, 48 h, read-out: LC50, LNCAP, 48 hours exposure, SRB) was 10.2 nM. It also gave a GI50 [8, 29] of 30.5 nM, a CC50 ([8]; Homo sapiens, 48 h, read-out: LC50, LOVO-DOX, 48 hours exposure, SRB) of 12700 nM and a TGI ([8]; 48 hours exposure, SRB) of 9.99E−08 Molar. For the same molecule, the IC (TGI) ([9]; Homo sapiens, LoVo, 48 h, 48 hours exposure, SRB) was 24.4 nM, the GI50 ([9]; LOVO, 48 hours exposure, SRB) was 4.42 nM and the CC50 ([9]; LOVO, 48 hours exposure, SRB) was 410 nM. It also gave a GI50 ([10]; MEL-28, 48 hours exposure, SRB) of 6.72 nM, a TGI ([10]; MEL-28, 48 hours exposure, SRB) of 2.66E−08 Molar and a CC50 ([10]; MEL-28, 48 hours exposure, SRB) of 102 nM. For the same molecule, the GI50 [11, 31] was 10.8 nM, the IC (TGI) [11, 31] was 48.9 nM and the CC50 ([11]; PANC-1, 48 hours exposure, SRB) was 506 nM. For the same molecule, the GI50 ([12]; SK-BR3, 48 hours exposure, SRB) was 2.33 nM, the TGI ([12]; SK-BR3, 48 hours exposure, SRB) was 6.86E−09 Molar and the CC50 ([12]; SK-BR3, 48 hours exposure, SRB) was 36.3 nM. It also gave a GI50 [13, 32] of 4.68 nM, a TGI [13, 32] of 4.08E−08 Molar and a CC50 ([13]; HMEC-1, 48 h, read-out: LC50, H-MEC-1, 48 hours exposure, SRB) of 12700 nM. The GI50 ([14]; Homo sapiens, SK-OV-3, 48 h, SK-OV3, 48 hours exposure, SRB) was 3.85 nM, the CC50 ([14]; Homo sapiens, SK-OV-3, 48 h, read-out: LC50, SK-OV3, 48 hours exposure, SRB) was 12700 nM and the TGI ([14]; SK-OV3, 48 hours exposure, SRB) was 9.82E−09 Molar. The Liver [15] was 6.30E−08, the Kidney [16] was 1.89E−08 and the Skeletal [17] was 2.39E−07. For the same molecule, the Myelo [18] was 1.39E−07, the Heart [19] was 3.49E−08 and the “Human Liver S9 Metabolic Stability (% remaining)” value [20] was 7 % remaining. The “CYP3A4 (% inhibition)” value [21] was 22 % inhibition, the “Cell Viability (% inhibition)” value [22] was 16 % inhibition and the “Solubility Dulbecco's PBS pH 7.4” value was less than 1 est μM. For the same molecule, the logD at 60 min [23] was greater than 4.5 and the inhibition at 450 min, 10 µM [24] was 16%.
`COc1c(C)cc2c(c1O)[C@@H]1C3[C@@H]4SC[C@]5(NC(C)Cc6c5[nH]c5ccccc65)C(=O)COC[C@@H](c5c6c(c(C)c(OC(C)=O)c54)OCO6)N3[C@@H](O)[C@H](C2)N1C` (some centres unmarked) [Compound 43] showed a TGI ([1]; A549) of 1.08E−08, a GI50 ([1]; A549) of 5.12 nM and a CC50 ([1]; read-out: LC50, A549) of 32.8 nM. For the same molecule, the TGI ([2]; DU145) was 9.04E−09, the GI50 ([2]; Homo sapiens, DU-145, DU145) was 4.76 nM and the CC50 ([2]; DU145) was 13 nM. It also gave a TGI ([3]; HT29) of 1.04E−07, a GI50 ([3]; Homo sapiens, HT-29, HT29) of 46.4 nM and a CC50 ([3]; Homo sapiens, HT-29, read-out: LC50, HT29) of 13000 nM. It also gave a GI50 [4] of 9.1 nM, a TGI [4] of 2.35E−08 and a CC50 [4] of 13000 nM. The TGI [5] was 5.20E−09, the GI50 ([5]; Homo sapiens) was 2.73 nM and the CC50 ([5]; read-out: LC50) was 9.88 nM. For the same molecule, the GI50 ([6]; Homo sapiens, K562, K562) was 2.51 nM, the TGI ([6]; K562) was 4.88E−09 and the CC50 ([6]; K562) was 9.49 nM. For the same molecule, the GI50 ([7]; LNCAP) was 2.02 nM, the TGI ([7]; LNCAP) was 3.76E−09 and the CC50 ([7]; read-out: LC50, LNCAP) was 7 nM. For the same molecule, the CC50 ([8]; Homo sapiens, read-out: LC50, LOVO-DOX) was 13000 nM, the GI50 [8] was 39.8 nM and the TGI [8] was 1.06E−07. The GI50 ([9]; LOVO) was 3.5 nM, the TGI ([9]; LOVO) was 8.32E−09 and the CC50 ([9]; LOVO) was 38.9 nM. The GI50 ([10]; MEL-28) was 308 nM, the TGI ([10]; MEL-28) was 5.81E−07 and the CC50 ([10]; MEL-28) was 1090 nM. It also gave a GI50 ([11]; PANC-1) of 5.28 nM, a TGI ([11]; PANC-1) of 1.15E−08 and a CC50 ([11]; PANC-1) of 39 nM. It also gave a GI50 ([12]; SK-BR3) of 3.77 nM, a TGI ([12]; SK-BR3) of 8.65E−09 and a CC50 ([12]; SK-BR3) of 41.1 nM. The GI50 ([13]; H-MEC-1) was 11.8 nM, the TGI ([13]; H-MEC-1) was 1.77E−07 and the CC50 ([13]; HMEC-1, read-out: LC50, H-MEC-1) was 13000 nM. For the same molecule, the GI50 ([14]; SK-OV3) was 3.39 nM, the TGI ([14]; SK-OV3) was 7.17E−09 and the CC50 ([14]; read-out: LC50, SK-OV3) was 13 nM. The Liver [15] was 7.57E−08, the Kidney [16] was 4.38E−08 and the Skeletal [17] was 1.60E−07. The Myelo [18] was 6.23E−08, the Heart [19] was 9.42E−08 and the “Human Liver S9 Metabolic Stability (% remaining)” value [20] was 3 % remaining. For the same molecule, the “CYP3A4 (% inhibition)” value [21] was 15 % inhibition, the “Solubility Dulbecco's PBS pH 7.4” value was 5.85 μM and the logD at 60 min [23] was greater than 4.5.
For `COc1c(C)cc2c(c1O)[C@H]1N[C@@H](C2)[C@H](O)N2[C@H]1[C@@H]1SC[C@]3(NCCc4c3[nH]c3ccccc43)C(=O)OC[C@H]2c2c3c(c(C)c(OC(C)=O)c21)OCO3` [Ecteinascidin 722, ecteinascidin 722], the “in vivo protection against P388 lymphoma” value [25] is given as “protect mice in vivo at very low concentrations”, the “in vivo protection against B16 melanoma” value [26] is given as “protect mice in vivo at very low concentrations” and the “in vivo protection against Lewis lung carcinoma” value [27] is given as “protect mice in vivo at very low concentrations”.
